Measurements taken from ChEMBL document CHEMBL3792344, “Synthesis, molecular properties prediction and anticancer, antioxidant evaluation of new edaravone derivatives” (Bioorg Med Chem Lett, 2016).
≈ marks a conversion by molar mass, not a printed value.

Key:
[1] = Cytotoxicity against human PC3 cells assessed as inhibition of cell viability at 25 uM after 48 hrs by MTT assay relative to control; assay type: functional; details: PC-3, 48 h
[2] = system: A549; experiment: Cytotoxicity against human A549 cells assessed as inhibition of cell viability at 25 uM after 48 hrs by MTT assay relative to control; assay type: functional; details: A549, 48 h
[3] = Cytotoxicity against HEK293T cells assessed as inhibition of cell viability at 25 uM after 48 hrs by MTT assay relative to control; assay type: cell-based, HEK-293T; details: human, read-out: INH
[4] = Antioxidant activity assessed as DPPH free radical scavenging activity incubated for 30 mins in dark condition by spectrophotometric method; assay type: physicochemical
[5] = Cytotoxicity against human PC3 cells assessed as inhibition of cell viability after 48 hrs by MTT assay; assay type: functional, cell-based; details: PC-3, 48 h
[6] = Cytotoxicity against HEK293T cells assessed as inhibition of cell viability after 48 hrs by MTT assay; assay type: cell-based; details: Homo sapiens, HEK-293T

Row | IC50 [4] [µg/mL] | SMILES | inhibition at 25 µM [1] [%] | inhibition at 25 µM [2] [%] | cytotoxicity at 48 h, 25 µM [3] [%] | IC50 [5] [nM] | IC50 [6] [nM]
1 | 32.2 (≈ 122 µM) | COc1c(-c2ccccc2)c(C)nn1-c1ccccc1 | 16.2 | 65.7 | 28.2 |  | 
2 | 28.42 (≈ 80.9 µM) | COc1ccc(CNC(=O)c2c(C)nn(-c3ccccc3)c2OC)cc1 | 34.6 | 60.9 | 44.3 |  | 
3 | 36.96 (≈ 138 µM) | COc1c(Br)c(C)nn1-c1ccccc1 | 6.38 | 30.8 | 5.96 |  | 
4 | 16.27 (≈ 70.1 µM) | COc1c(C(=O)O)c(C)nn1-c1ccccc1 | 3.19 | 22.1 | 12.1 |  | 
5 | 24.98 (≈ 84.9 µM) | COc1ccc(-c2c(C)nn(-c3ccccc3)c2OC)cc1 | 24.3 | 70.7 | 46.3 |  | 
6 | 18.6 (≈ 66.8 µM) | COc1c(-c2ccc(C)cc2)c(C)nn1-c1ccccc1 | 18.5 | 44 | 19.7 |  | 
7 | 53.56 (≈ 170 µM) | COc1c(-c2ccc3ccccc3c2)c(C)nn1-c1ccccc1 | 27.6 | 71 | 53.6 |  | 
8 | 26.4 (≈ 94.8 µM) | COc1c(-c2cccc(C)c2)c(C)nn1-c1ccccc1 | 59.3 | 85.9 | 70.5 |  | 
9 | 49.18 (≈ 261 µM) | COc1cc(C)nn1-c1ccccc1 | 5.91 | 55.8 | 23 |  | 
10 | 37.03 (≈ 132 µM) | COc1c(-c2ccc(O)cc2)c(C)nn1-c1ccccc1 | 4.9 | 55.9 | 5.58 |  | 
11 | 35.97 (≈ 127 µM) | COc1c(-c2ccc(F)cc2)c(C)nn1-c1ccccc1 | 46.3 | 63.9 | 40.9 |  | 
12 | 50.67 (≈ 158 µM) | COc1c(-c2csc3ccccc23)c(C)nn1-c1ccccc1 | 32.4 | 73.5 | 55 |  | 
13 | 23.63 (≈ 73.5 µM) | COc1c(C(=O)NCc2ccccc2)c(C)nn1-c1ccccc1 | 8.71 | 46.7 | 22.2 |  | 
14 | 20.05 (≈ 65 µM) | COCc1ccccc1-c1c(C)nn(-c2ccccc2)c1OC | 36 | 80.5 | 56.5 |  | 
15 | 16.07 (≈ 45.2 µM) | COc1c(C(=O)NCc2ccc(Cl)cc2)c(C)nn1-c1ccccc1 | 45.8 | 87 | 49.4 |  | 
16 | 41.98 (≈ 145 µM) | COc1c(-c2ccc(C#N)cc2)c(C)nn1-c1ccccc1 | 30.2 | 54.7 | 57.8 |  | 
17 | 26.98 (≈ 80.4 µM) | COc1c(C(=O)NC(C)c2ccccc2)c(C)nn1-c1ccccc1 (stereo not drawn) | 29.7 | 52.7 | 31.8 |  | 
18 | 38.99 (≈ 120 µM) | COc1ccc(-c2c(C)nn(-c3ccccc3)c2OC)c(OC)c1 | 33 | 74.7 | 48.1 |  | 
19 | 30.08 (≈ 111 µM) | COc1c(-c2ccsc2)c(C)nn1-c1ccccc1 | 36.6 | 40 | 22.2 |  | 
20 | 8.09 (≈ 45.9 µM) | O=C1O[C@H]([C@@H](O)CO)C(O)=C1O [ASCORBIC ACID] |  |  |  |  | 
21 |  | COc1cccc2c1C(=O)c1c(O)c3c(c(O)c1C2=O)C[C@@](O)(C(=O)CO)C[C@@H]3O[C@H]1C[C@H](N)[C@H](O)[C@H](C)O1 [DOXORUBICIN] |  |  |  | 2100 | 1200
22 | 54.4 (≈ 312 µM) | CC1=NN(c2ccccc2)C(=O)C1 [EDARAVONE] | 1.43 | 19.2 | 2.4 |  | 
